Assay results as given in ChEMBL document CHEMBL3301361, “Experimental in vitro DMPK and physicochemical data on a set of publicly disclosed compounds”.
Converted amounts (≈) assume the structure as drawn.

Assay: physchem
Conditions: pH 7.4 buffer

SMILES	solubility thermodynamic
C[C@@H]1CN(c2nc(N3CCOCC3)c3ccc(-c4ccccc4)nc3n2)C[C@H](C)O1	1.8 µM (≈ 0.73 µg/mL)
Cc1ccccc1C(=O)NC1CCN(Cc2ccccc2)CC1	246 µM (≈ 75.7 µg/mL)
COc1cc2c(Nc3cc(CC(=O)Nc4cccc(F)c4)[nH]n3)ncnc2cc1OCCCN1CCC[C@@H]1CO	162 µM (≈ 89.1 µg/mL)
CC(C)Oc1cc(OCCc2ccccc2)cc(C(=O)Nc2ccc(C(=O)O)cn2)c1	28.8 µM (≈ 12.1 µg/mL)
COc1ccc2[nH]c(=O)c3c(c2c1)OC(C)(C)C=C3 [HAPLAMINE]	87.1 µM (≈ 22.4 µg/mL)
Cc1cc(C)c(C(=O)N[C@@H](CNC(=O)CO[C@@H]2C[C@@H](CNc3ccccn3)N(C(=O)OCc3ccccc3)C2)C(=O)O)c(C)c1	389 µM (≈ 240 µg/mL)
Clc1ccc2c(c1)Nc1ccccc1S2	0.7 µM (≈ 0.164 µg/mL)
COc1cc2ncnc(Nc3ccc(C)c(O)c3)c2cc1OC	4.4 µM (≈ 1.37 µg/mL)
CS(=O)(=O)N1CC2(CCN(C(=O)Nc3cnc(-c4ccccc4)cn3)CC2)c2ccccc21	0.2 µM (≈ 0.0927 µg/mL)
Cc1cc2oc(=O)cc(Cn3ccnc3)c2cc1C	33.9 µM (≈ 8.62 µg/mL)
CNC(=O)[C@@H](C)Oc1cccc2ncnc(Nc3ccc4c(cnn4Cc4ccccn4)c3)c12	6 µM (≈ 2.72 µg/mL)
O=C(CCCCCCC(=O)Nc1ccccc1)NO [VORINOSTAT]	1230 µM (≈ 325 µg/mL)
COc1ccc(Cl)c(Nc2ncnc3cc(OCCN4CCN(C(C)=O)CC4)cc(OC(C)C)c23)n1	42.7 µM (≈ 22 µg/mL)
C[C@H](Oc1cccc2ncnc(Nc3ccc4c(cnn4Cc4cscn4)c3)c12)C(=O)N(C)C	42.7 µM (≈ 20.2 µg/mL)
Cc1cccc(C)c1NC(=O)N1CCC(C(=O)c2ccc(F)cc2)CC1	18.6 µM (≈ 6.59 µg/mL)
COc1cc2nccc(Nc3ccc(Oc4ccccc4)cc3)c2cc1OC	2.6 µM (≈ 0.968 µg/mL)
O=C(Nc1cc(Cl)cc2c1[nH]c1cnccc12)c1cccnc1	3.9 µM (≈ 1.26 µg/mL)
COc1cc2ncnc(Nc3cc(NC(=O)c4ccnc(N5CCOCC5)c4)ccc3C)c2cc1OCCN(C(C)C)C(C)C	240 µM (≈ 147 µg/mL)
O=C(Nc1ccccc1)c1cc(-n2cnnc2)ccc1Cl	407 µM (≈ 122 µg/mL)
CC(=O)Nc1nc(-c2ccc(Br)s2)cs1	2.2 µM (≈ 0.667 µg/mL)
COc1ccc(NC(=O)c2cc(C)no2)cc1	158 µM (≈ 36.8 µg/mL)

SMILES	solubility thermodynamic
Cc1cc(C)cc(-c2[nH]c3sc(C(C)(C)C(=O)N4C5CCC4CC5)cc3c2[C@H](C)CNC(=O)N2CCC(c3ccncc3)CC2)c1	0.6 µM (≈ 0.383 µg/mL)
Cc1c(-c2ccc(O)cc2)n(Cc2ccc(OCCN3CCCCCC3)cc2)c2ccc(O)cc12 [BAZEDOXIFENE]	5.2 µM (≈ 2.45 µg/mL)
CCc1cc(Nc2nc(NCc3cc(-c4ccccn4)no3)ncc2Br)n[nH]1	3.8 µM (≈ 1.68 µg/mL)
NS(=O)(=O)c1ccc(Nc2nccc(-c3cnc4ccccn34)n2)cc1	6.5 µM (≈ 2.38 µg/mL)
CCc1cc(OCc2ccc(-c3ccccc3-c3nnn[nH]3)cc2)c2ccccc2n1	7.8 µM (≈ 3.18 µg/mL)
Oc1cc(-c2ccccc2)nc2ccc(Cl)cc12	5.9 µM (≈ 1.51 µg/mL)
C[C@H](Oc1cccc2ncnc(Nc3ccc4c(cnn4Cc4ccccn4)c3)c12)C(=O)N1CCOCC1	166 µM (≈ 84.6 µg/mL)
O=C(O)c1c(Cl)c2ccccc2n1Cc1ccc(Cl)c(Cl)c1	759 µM (≈ 269 µg/mL)
C[C@H](C#N)NC(=O)[C@@H]1CCCC[C@H]1C(=O)N1CCc2[nH]c3ccc(F)cc3c2C1	457 µM (≈ 181 µg/mL)
CN(C)C(=O)c1nnsc1Sc1ccc(Cl)cc1	31.6 µM (≈ 9.47 µg/mL)
O=S(=O)(NCCNC/C=C/c1ccc(Br)cc1)c1cccc2cnccc12	61.7 µM (≈ 27.5 µg/mL)
Cc1cc(F)ccc1CCC1CCN(S(=O)(=O)CC2(N(O)C=O)CCOCC2)CC1	13.8 µM (≈ 6.11 µg/mL)
CNC(=O)[C@@H](NC(=O)[C@H](CC(C)C)[C@H](Sc1ccc(OC)c(OC)c1)C(=O)NO)C(C)(C)C	1290 µM (≈ 623 µg/mL)
COc1cc2c(Nc3cc(CC(=O)Nc4cccc(F)c4)[nH]n3)ncnc2cc1OCCCNCCO	219 µM (≈ 111 µg/mL)
COc1cc(Nc2cc(Oc3ccc(C)nc3C)ccn2)cc(OC)c1OC	6.8 µM (≈ 2.59 µg/mL)
CC(C)Cc1nc(-c2ccccc2)c(-c2ccc(CN3CCC(n4c(=O)[nH]c5ccccc54)CC3)cc2)nc1O	1.6 µM (≈ 0.854 µg/mL)
CC(C)CC(C(=O)NCC(=O)CNS(=O)(=O)c1ccccn1)c1cccc(-c2ccccc2)c1 (centres undefined)	1.2 µM (≈ 0.576 µg/mL)
COc1cc(Oc2ncnc3cc(OC)c(OC)cc23)ccc1CC(=O)Nc1cn(C)nc1C	1.8 µM (≈ 0.834 µg/mL)
COc1cc2ncnc(Nc3ccc(Br)cc3F)c2cc1OC	6.8 µM (≈ 2.57 µg/mL)
COc1cc(OC2CCOCC2)c2c(Nc3ccc(F)c(Cl)c3)ncnc2c1	0.1 µM (≈ 0.0404 µg/mL)
COC(=O)C1=C(C#N)NC(C)=C(C(=O)OC(C)C)C1c1cccc([N+](=O)[O-])c1 (centres undefined) [NILVADIPINE]	2.1 µM (≈ 0.809 µg/mL)

SMILES	solubility thermodynamic
O=c1c2ccccc2[nH]n1CCc1ccccc1	550 µM (≈ 131 µg/mL)
CN(C)C(=O)c1cc(-c2nc(N3CCOCC3)cc(C3(S(C)(=O)=O)CC3)n2)c2cc[nH]c2c1	100 µM (≈ 47 µg/mL)
CCN1N=C(c2ccccc2)Cn2c1nc1ccccc12	6.9 µM (≈ 1.91 µg/mL)
CNC(=O)c1cc(COc2nnc(Nc3ccc(Cl)cc3)c3ccoc23)ccn1 [TELATINIB]	0.3 µM (≈ 0.123 µg/mL)
CN(C)C(=O)Nc1ccc(Cl)c(Cl)c1 [DCMU]	132 µM (≈ 30.7 µg/mL)
COc1ccc(-c2cc(N)c(C(N)=O)s2)cc1	30.9 µM (≈ 7.67 µg/mL)
CCOC(=O)C1CCN(c2ncnc(Oc3ccc(CCC(C)=O)cc3)c2[N+](=O)[O-])CC1	1.9 µM (≈ 0.841 µg/mL)
C[C@@H](Oc1cccc2ncnc(Nc3ccc4c(cnn4Cc4nccs4)c3)c12)C(=O)N(C)C	29.5 µM (≈ 14 µg/mL)
Cc1ncc(-c2nc(Nc3ccc(N4CCN(C(=O)CO)CC4)cc3)ncc2F)n1C(C)C	158 µM (≈ 71.9 µg/mL)
CCN(C(=O)Cc1ccc(S(C)(=O)=O)cc1)C1CCN(CCC(c2ccccc2)N2CCN(c3ccccc3)CC2)CC1 (centres undefined)	692 µM (≈ 417 µg/mL)
COC[C@H](C)Oc1cc(O[C@@H](C)Cc2ccc(F)cc2)cc(C(=O)Nc2ccc(C(=O)O)cn2)c1	1260 µM (≈ 607 µg/mL)
COc1cc2c(Nc3ccc(Cl)cc3F)ncnc2cc1OC/C=C/CN1CCCC1	759 µM (≈ 336 µg/mL)
COc1cc(N2CCN(CC(=O)N(C)C)CC2)ccc1Nc1ncc(Cl)c(-c2cnc3ccccn23)n1	5 µM (≈ 2.61 µg/mL)
CNC(=O)Cc1ccc2c(=O)cc(-c3cccnc3)[nH]c2c1	457 µM (≈ 134 µg/mL)
O=C(NNC(=O)c1ccccc1)c1ccccc1	182 µM (≈ 43.7 µg/mL)
COc1ccc2c(Oc3ccc(CC(=O)Nc4cnn(C)c4C)c(OC)c3)ccnc2c1	10.7 µM (≈ 4.63 µg/mL)
COc1cc(N2CCN(C(C)=O)CC2)ccc1Nc1ncc(F)c(-c2cnc3ccccn23)n1	14.5 µM (≈ 6.69 µg/mL)
Fc1ccc(CN2CCN(C3=Nn4c(nnc4C(F)(F)F)CC3)CC2)cc1	525 µM (≈ 201 µg/mL)
Cc1cc(C)c(N2C(=O)CC(Sc3ccccc3N)C2=O)c(C)c1 (centres undefined)	9.3 µM (≈ 3.17 µg/mL)
NC(=O)c1ccccc1NC(=O)Nc1ccc(Cl)c(Cl)c1	1.5 µM (≈ 0.486 µg/mL)
CS(=O)(=O)c1cccc(Nc2nccc(Nc3c(Cl)ccc4c3OCO4)n2)c1	30.2 µM (≈ 12.6 µg/mL)

SMILES	solubility thermodynamic
CS(=O)(=O)c1ccc2c3c([nH]c2c1)CCN(C(=O)[C@@H]1CCCC[C@H]1C(=O)NC1(C#N)CC1)C3	912 µM (≈ 427 µg/mL)
O=C1CCC(N2C(=O)c3ccccc3C2=O)C(=O)N1 (centres undefined) [THALIDOMIDE]	155 µM (≈ 40 µg/mL)
CN(C)C(=N)c1ccc(C(=O)N2CCN(S(=O)(=O)c3ccc4cc(Br)ccc4c3)CC2)cc1	1320 µM (≈ 698 µg/mL)
CCN(C(=O)Cc1ccc(S(C)(=O)=O)cc1)C1CCN(CC[C@@H](c2ccccc2)C2CCN(S(=O)(=O)C(F)(F)F)CC2)CC1	56.2 µM (≈ 37 µg/mL)
C[C@@H]1CN(C(=O)OC(C)(C)C)CCN1c1ncc(OCC2CCN(S(C)(=O)=O)CC2)cn1	5 µM (≈ 2.35 µg/mL)
COc1cc2c(NC(=O)Nc3ccccc3Cl)ncnc2cc1OCC1CCN(C)CC1	0.3 µM (≈ 0.137 µg/mL)
C[C@@H](Oc1cccc2ncnc(Nc3ccc4c(cnn4Cc4cccc(F)c4)c3)c12)C(=O)N1CCOCC1	0.3 µM (≈ 0.158 µg/mL)
CCN1C(=O)C(C)(C)c2cc3[nH]c4c(c3cc21)CCCc1c-4n[nH]c1C	0.7 µM (≈ 0.244 µg/mL)
COc1ccc2oc(=O)c(C(C)=O)cc2c1	49 µM (≈ 10.7 µg/mL)
COc1cc2c(Nc3ccc(Cl)cc3F)ncnc2cc1OCCn1ccnn1	1.5 µM (≈ 0.622 µg/mL)
CC1(C)Oc2ncnc(N)c2N=C1c1ccc(C23CC4CC(CC(CC(=O)O)(C4)C2)C3)cc1	79.4 µM (≈ 35.5 µg/mL)
CN(C)C(=O)[C@H](Cc1ccccc1)NC(=O)c1cc2cc(Cl)ccc2[nH]1	2.6 µM (≈ 0.962 µg/mL)
Nc1nccc(/C=C/c2c(Cl)nc3sccn23)n1	324 µM (≈ 89.9 µg/mL)
CN(C(=O)Cc1ccc(-n2cnnn2)cc1)[C@H]1CCN(Cc2ccc(C(F)(F)F)cc2)C[C@H]1F	8.1 µM (≈ 3.86 µg/mL)
CCn1cc(NC(=O)Cc2ccc(Oc3ccnc4cc(OC)c(OC)cc34)cc2)cn1	10.7 µM (≈ 4.63 µg/mL)
CC(C)c1ccc2[nH]c3c(c2c1)CN(C(=O)[C@@H]1CCCC[C@H]1C(=O)NC1(C#N)CC1)CC3	83.2 µM (≈ 36 µg/mL)
c1ccc(NCc2ccc(CNc3ccccn3)cc2)nc1	0.9 µM (≈ 0.261 µg/mL)
CCn1cc(NC(=O)Cc2ncc(Oc3ccnc4cc(OC)ccc34)cc2OC)cn1	17.4 µM (≈ 7.54 µg/mL)
COc1cccc(NC(=O)Cn2cc(Oc3ccnc4cc(OC)c(OC)cc34)cn2)c1	66.1 µM (≈ 28.7 µg/mL)
COc1cc2ncnc(Nc3cccc(Cl)c3F)c2cc1CN1CC[C@H](C(N)=O)C1	77.6 µM (≈ 33.4 µg/mL)
Cc1ccc(Oc2ccc(C(=O)N(C)Cc3ccncc3)cc2)cc1	1.9 µM (≈ 0.632 µg/mL)
